# How the values were obtained:
# [1] = molecular target: Sodium-dependent dopamine transporter (Homo sapiens, UniProt Q01959); experiment: Binding affinity to dopamine transporter in membranes of cells selectively expressing the human genes for DAT; assay type: cell membranes
# [2] = molecular target: Sodium-dependent dopamine transporter (Rattus norvegicus, UniProt P23977); experiment: Binding affinity to dopamine transporter (DAT) in rat forebrain tissue; assay type: tissue-based
# [3] = molecular target: Norepinephrine transporter (Rattus norvegicus, UniProt Q9WTR4); experiment: Binding affinity to norepinephrine (NE) transporter in rat forebrain tissue; assay type: tissue-based
# [4] = molecular target: Sodium-dependent noradrenaline transporter (Homo sapiens, UniProt P23975); experiment: Binding affinity to norepinephrine (NE) transporter in membranes of cells selectively expressing the human genes for NET; assay type: cell membranes
# [5] = molecular target: Sodium-dependent serotonin transporter (Rattus norvegicus, UniProt P31652); experiment: Binding affinity to serotonin transporter (SERT) in rat forebrain tissue; assay type: tissue-based
# [6] = molecular target: Sodium-dependent serotonin transporter (Homo sapiens, UniProt P31645); experiment: Binding affinity to serotonin transporter (SERT) in membranes of cells selectively expressing the human genes for SERT; assay type: cell membranes
# [7] = molecular target: Monoamine transporters; serotonin & dopamine (Homo sapiens) (UniProt P31645+Q01959); experiment: Binding selectivity ratio at human serotonin transporter versus dopamine transporter (hSERT/hDAT); assay type: protein assay
# Monoamine transporters; serotonin & dopamine (Homo sapiens), sequence (P31645 whole entry, looked up): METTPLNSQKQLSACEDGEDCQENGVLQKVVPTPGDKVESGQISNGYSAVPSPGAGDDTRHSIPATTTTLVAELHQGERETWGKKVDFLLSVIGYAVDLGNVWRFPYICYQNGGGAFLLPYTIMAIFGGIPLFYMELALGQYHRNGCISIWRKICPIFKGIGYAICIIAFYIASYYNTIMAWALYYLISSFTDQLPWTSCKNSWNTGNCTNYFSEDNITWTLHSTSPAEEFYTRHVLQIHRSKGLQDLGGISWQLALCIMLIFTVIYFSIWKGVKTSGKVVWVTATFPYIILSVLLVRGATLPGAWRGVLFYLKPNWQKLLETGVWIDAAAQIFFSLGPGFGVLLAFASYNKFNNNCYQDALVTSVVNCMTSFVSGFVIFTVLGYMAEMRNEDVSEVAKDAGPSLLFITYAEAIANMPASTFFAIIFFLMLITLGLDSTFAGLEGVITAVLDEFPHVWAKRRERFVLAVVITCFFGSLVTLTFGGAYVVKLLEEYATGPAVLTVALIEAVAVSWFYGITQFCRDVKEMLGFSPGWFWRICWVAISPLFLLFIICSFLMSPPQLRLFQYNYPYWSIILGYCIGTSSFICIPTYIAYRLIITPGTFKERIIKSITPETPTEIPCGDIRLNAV
# Monoamine transporters; serotonin & dopamine (Homo sapiens), sequence (Q01959 whole entry, looked up): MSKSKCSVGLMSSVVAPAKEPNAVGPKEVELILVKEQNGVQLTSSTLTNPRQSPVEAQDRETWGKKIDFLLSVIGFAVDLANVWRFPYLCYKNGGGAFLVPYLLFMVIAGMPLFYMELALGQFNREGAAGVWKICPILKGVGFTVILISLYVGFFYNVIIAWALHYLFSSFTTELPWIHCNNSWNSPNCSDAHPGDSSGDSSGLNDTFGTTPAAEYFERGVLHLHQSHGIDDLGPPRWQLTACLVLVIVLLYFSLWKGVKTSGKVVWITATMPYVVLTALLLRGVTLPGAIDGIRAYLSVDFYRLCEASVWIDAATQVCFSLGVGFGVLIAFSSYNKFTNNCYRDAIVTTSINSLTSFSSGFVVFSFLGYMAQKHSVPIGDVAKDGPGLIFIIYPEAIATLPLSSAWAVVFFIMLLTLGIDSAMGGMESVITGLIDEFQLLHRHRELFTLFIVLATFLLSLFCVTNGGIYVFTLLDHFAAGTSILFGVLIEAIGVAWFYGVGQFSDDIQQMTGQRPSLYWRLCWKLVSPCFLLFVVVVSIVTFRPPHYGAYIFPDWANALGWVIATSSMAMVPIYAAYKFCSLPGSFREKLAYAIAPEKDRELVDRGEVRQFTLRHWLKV
# Sodium-dependent serotonin transporter (Homo sapiens, UniProt P31645), sequence (P31645 whole entry): as the sequence (P31645 whole entry, looked up) above
# Norepinephrine transporter, sequence (Q9WTR4 whole entry): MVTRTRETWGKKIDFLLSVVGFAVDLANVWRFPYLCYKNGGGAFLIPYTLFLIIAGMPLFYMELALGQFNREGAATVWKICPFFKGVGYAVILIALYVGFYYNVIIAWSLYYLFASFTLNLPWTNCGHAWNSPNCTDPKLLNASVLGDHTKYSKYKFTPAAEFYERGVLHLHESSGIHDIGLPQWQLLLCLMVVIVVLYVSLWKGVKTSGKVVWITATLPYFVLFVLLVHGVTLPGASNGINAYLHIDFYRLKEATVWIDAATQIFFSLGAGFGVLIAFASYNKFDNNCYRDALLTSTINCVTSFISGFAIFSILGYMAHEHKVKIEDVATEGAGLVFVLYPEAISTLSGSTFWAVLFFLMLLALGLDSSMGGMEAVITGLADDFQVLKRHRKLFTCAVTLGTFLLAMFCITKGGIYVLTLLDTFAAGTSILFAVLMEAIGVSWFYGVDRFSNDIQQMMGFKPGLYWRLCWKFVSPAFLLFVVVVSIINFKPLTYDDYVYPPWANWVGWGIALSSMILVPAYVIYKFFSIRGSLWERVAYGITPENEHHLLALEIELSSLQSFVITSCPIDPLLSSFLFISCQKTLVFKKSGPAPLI
# Sodium-dependent serotonin transporter (Rattus norvegicus, UniProt P31652), sequence (P31652 whole entry): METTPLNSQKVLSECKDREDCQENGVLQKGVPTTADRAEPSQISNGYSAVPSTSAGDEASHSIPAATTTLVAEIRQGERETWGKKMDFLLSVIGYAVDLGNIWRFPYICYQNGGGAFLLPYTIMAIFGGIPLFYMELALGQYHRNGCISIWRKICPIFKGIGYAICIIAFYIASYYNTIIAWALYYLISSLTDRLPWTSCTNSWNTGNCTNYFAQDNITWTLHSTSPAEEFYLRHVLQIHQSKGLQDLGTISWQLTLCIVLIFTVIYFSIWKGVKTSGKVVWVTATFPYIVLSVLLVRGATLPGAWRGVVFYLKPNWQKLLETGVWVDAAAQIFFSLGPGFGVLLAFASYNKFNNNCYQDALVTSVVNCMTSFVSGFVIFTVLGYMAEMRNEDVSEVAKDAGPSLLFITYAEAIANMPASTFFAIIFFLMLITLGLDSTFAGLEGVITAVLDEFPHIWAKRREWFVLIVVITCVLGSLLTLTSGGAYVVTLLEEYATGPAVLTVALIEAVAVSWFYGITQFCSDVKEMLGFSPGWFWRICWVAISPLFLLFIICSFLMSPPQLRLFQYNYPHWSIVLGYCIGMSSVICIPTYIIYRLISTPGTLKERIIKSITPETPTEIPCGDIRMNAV
# Sodium-dependent dopamine transporter (Homo sapiens, UniProt Q01959), sequence (Q01959 whole entry): as the sequence (Q01959 whole entry, looked up) above
# Sodium-dependent noradrenaline transporter, sequence (P23975 whole entry): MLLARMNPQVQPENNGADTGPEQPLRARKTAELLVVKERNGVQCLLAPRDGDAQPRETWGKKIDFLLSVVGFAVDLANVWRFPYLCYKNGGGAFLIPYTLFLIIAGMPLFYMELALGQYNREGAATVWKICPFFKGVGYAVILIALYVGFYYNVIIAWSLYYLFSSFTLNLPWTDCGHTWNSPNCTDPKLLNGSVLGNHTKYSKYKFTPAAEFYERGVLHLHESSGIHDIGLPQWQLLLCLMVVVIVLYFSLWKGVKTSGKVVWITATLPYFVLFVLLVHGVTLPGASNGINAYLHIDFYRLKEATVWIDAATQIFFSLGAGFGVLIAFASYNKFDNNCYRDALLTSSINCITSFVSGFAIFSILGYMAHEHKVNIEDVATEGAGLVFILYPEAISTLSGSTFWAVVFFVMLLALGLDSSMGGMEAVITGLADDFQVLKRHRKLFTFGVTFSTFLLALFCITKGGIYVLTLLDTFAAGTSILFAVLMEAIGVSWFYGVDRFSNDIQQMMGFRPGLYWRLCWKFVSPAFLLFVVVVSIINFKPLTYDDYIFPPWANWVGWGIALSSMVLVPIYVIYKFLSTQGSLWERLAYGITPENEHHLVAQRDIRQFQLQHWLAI
# Sodium-dependent dopamine transporter (Rattus norvegicus, UniProt P23977), sequence (P23977 whole entry): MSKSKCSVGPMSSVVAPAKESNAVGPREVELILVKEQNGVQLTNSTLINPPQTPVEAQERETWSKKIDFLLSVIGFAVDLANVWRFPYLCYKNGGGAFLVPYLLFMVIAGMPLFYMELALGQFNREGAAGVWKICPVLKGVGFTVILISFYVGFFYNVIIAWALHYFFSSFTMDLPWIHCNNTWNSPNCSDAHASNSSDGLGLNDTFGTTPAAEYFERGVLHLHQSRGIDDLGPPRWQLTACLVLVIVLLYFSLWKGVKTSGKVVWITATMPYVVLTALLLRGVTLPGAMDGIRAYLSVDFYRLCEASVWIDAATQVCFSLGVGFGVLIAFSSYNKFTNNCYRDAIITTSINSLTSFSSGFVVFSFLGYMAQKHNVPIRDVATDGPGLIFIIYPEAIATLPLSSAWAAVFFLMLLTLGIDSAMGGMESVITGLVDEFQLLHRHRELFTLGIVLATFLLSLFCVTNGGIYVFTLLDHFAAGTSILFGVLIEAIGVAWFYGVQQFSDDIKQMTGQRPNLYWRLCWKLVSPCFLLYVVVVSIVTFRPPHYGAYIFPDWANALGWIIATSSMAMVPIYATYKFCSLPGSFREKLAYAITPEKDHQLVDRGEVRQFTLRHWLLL
SMILES,Ki [1],Ki [2],Ki [3],Ki [4],Ki [5],Ki [6],Selectivity ratio [7]
COC(=O)C1C(c2cccc(-c3ccsc3)c2)CC2CCC1N2C (stereo not drawn),29.8 nM,23.7 nM,> 10000 nM,> 20000 nM,82.5 nM,74.1 nM,0.402
COC(=O)C1C(c2cccc(-c3ccccc3)c2)CC2CCC1N2C (stereo not drawn),8.83 nM,9.59 nM,> 10000 nM,1360 nM,35.2 nM,38.6 nM,0.229
COC(=O)C1C(c2cccc(-c3ccco3)c2)CC2CCC1N2C (stereo not drawn),54 nM,30.8 nM,10000 nM,3020 nM,41.7 nM,55.1 nM,0.98
COC(=O)C1C2CCC(CC1c1ccc(I)cc1)N2 (stereo not drawn),–,–,–,–,0.062 nM,–,–
COC(=O)C1C(c2cccc(I)c2)CC2CCC1N2C (stereo not drawn),182 nM,100 nM,> 10000 nM,1040 nM,9.82 nM,9.63 nM,18.9
COC(=O)C1C2CCC(CC1c1cccc(I)c1)N2 (stereo not drawn),438 nM,21.2 nM,282 nM,118 nM,1.35 nM,1.23 nM,356
COC(=O)[C@@H]1C2CC[C@H](C[C@@H]1c1ccc(I)cc1)N2C,–,–,–,11.2 nM,0.41 nM,–,–

# Source: ChEMBL document CHEMBL1147545, “Synthesis and monoamine transporter affinity of 3'-analogs of 2-beta-carbomethoxy-3-beta-(4'-iodophenyl)tropane (beta-CIT)” (Bioorg Med Chem Lett, 2004)
